According to US11149018B2, “Substituted N-arylethyl-2-aminoquinoline-4-carboxamides and use thereof” (Bayer Aktiengesellschaft, priority 2017, dated 2021):
Counter-ions that a name gives are not always drawn.

These compounds were tested against FP receptor (Homo sapiens (Human), UniProt P43088) (assay: In vitro test of inhibition of human FP receptor activity (PGF2α-induced calcium flux in FP-expressing CHEM1 cells)). Conditions: PGF2α 2 nM, some mean values of multiple determinations.
Type: cell-based
In short: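 FP antagonism in FP-expressing CHEM1 cells loaded with Fluo-8. Compound preincubated 10 min at 37° C, then receptor stimulated with 2 nM (final) PGF2α in calcium-free Tyrode with 2 mM CaCl2.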

Chain of FP receptor (P43088 whole entry): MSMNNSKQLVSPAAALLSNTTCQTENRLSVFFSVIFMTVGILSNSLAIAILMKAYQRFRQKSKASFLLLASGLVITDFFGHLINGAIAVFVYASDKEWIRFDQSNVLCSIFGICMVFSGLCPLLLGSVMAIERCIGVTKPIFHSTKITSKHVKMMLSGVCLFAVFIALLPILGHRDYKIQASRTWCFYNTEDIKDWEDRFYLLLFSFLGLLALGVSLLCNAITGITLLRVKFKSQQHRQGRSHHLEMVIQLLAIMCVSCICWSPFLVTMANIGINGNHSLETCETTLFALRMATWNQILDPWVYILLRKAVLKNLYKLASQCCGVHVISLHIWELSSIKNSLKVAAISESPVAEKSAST

First: Cc1c(N2CCCC(F)(F)C2)nc2ccc(Br)cc2c1C(=O)NCC(CCC(=O)O)c1ccccc1C(F)(F)F (racemic) [Example 117, (+/−)-5-({[6-Bromo-2-(3,3-difluoropiperidin-1-yl)-3-methylquinolin-4-yl]carbonyl}amino)-4-[2-(trifluoromethyl)phenyl]pentanoic acid]
Second: Cc1c(NCC(C)C)nc2ccc(Br)cc2c1C(=O)NCC(CCC(=O)O)c1ccccc1Cl (racemic) [Example 102, (+/−)-5-({[6-Bromo-2-(isobutylamino)-3-methylquinolin-4-yl]carbonyl}amino)-4-(2-chlorophenyl)pentanoic acid]
The IC50 of the first is 16-fold lower: 16 nM for the first, 250 nM for the second. The first is the more potent here.

Going from `CCC1CCCN(c2nc3ccc(Br)cc3c(C(=O)NCC(CCC(=O)O)c3ccccc3OC(F)(F)F)c2C)C1` (single isomer, unassigned; (+)) [Example 205, (+)-5-[({6-Bromo-2-[3-ethylpiperidin-1-yl]-3-methylquinolin-4-yl}carbonyl)amino]-4-[2-(trifluoromethoxy)phenyl]pentanoic acid] to `Cc1c(N2CCCCC2)nc2ccc(Br)cc2c1C(=O)NCC(CCC(=O)O)c1c(Cl)ccc(Cl)c1Cl` (single isomer, unassigned; (+)) [Example 172, (+)-5-({[6-Bromo-3-methyl-2-(piperidin-1-yl)quinolin-4-yl]carbonyl}amino)-4-(2,3,6-trichlorophenyl)pentanoic acid], the IC50 rises from 0.41 nM to 41 nM (100-fold). The first is the more potent here.

Compared with `Cc1c(N2CCC(F)(F)CC2)nc2ccc(Br)cc2c1C(=O)NCC(CCC(=O)O)c1ccccc1Cl` (racemic) [Example 28, (+/−)-5-({[6-Bromo-2-(4,4-difluoropiperidin-1-yl)-3-methylquinolin-4-yl]carbonyl}amino)-4-(2-chlorophenyl)pentanoic acid], `Cc1c(NCC2CCCCC2)nc2ccc(Br)cc2c1C(=O)NCC(CCC(=O)O)c1ccccc1Cl` (racemic) [Example 99, (+/−)-5-[({6-Bromo-2-[(cyclohexylmethyl)amino]-3-methylquinolin-4-yl}carbonyl)amino]-4-(2-chlorophenyl)pentanoic acid] is 16-fold higher in IC50: 31 nM for the first, 500 nM for the second. The first is the more potent here.

Compared with `Cc1c(N2CCCC2)nc2ccc(Br)cc2c1C(=O)NCC(CCC(=O)O)c1c(Cl)ccc(Cl)c1Cl` (single isomer, unassigned; (-)) [Example 176, formate], `CCC1CCCN(c2nc3ccc(Br)cc3c(C(=O)NCC(CCC(=O)O)c3ccccc3Cl)c2C)C1` (racemic) [Example 57, (+/−)-5-[({6-Bromo-2-[3-ethylpiperidin-1-yl]-3-methylquinolin-4-yl}carbonyl)amino]-4-(2-chlorophenyl)pentanoic acid] is 9.3-fold lower in IC50: 7.8 nM for the first, 0.84 nM for the second.

First: Cc1ccccc1C(CCC(=O)O)CNC(=O)c1c(C)c(N2CCCC(F)(F)C2)nc2ccc(Br)cc12 (single isomer, unassigned; (+)) [Example 231, (+)-5-({[6-Bromo-2-(3,3-difluoropiperidin-1-yl)-3-methylquinolin-4-yl]carbonyl}amino)-4-(2-methylphenyl)pentanoic acid]
Second: Cc1c(N2CCCC(F)(F)C2)nc2ccc(Br)cc2c1C(=O)NCC(CCC(=O)O)c1ccccc1OC(F)(F)F (single isomer, unassigned; (-)) [Example 133, (−)-5-({[6-Bromo-2-(3,3-difluoropiperidin-1-yl)-3-methylquinolin-4-yl]carbonyl}amino)-4-[2-(trifluoromethoxy)phenyl]pentanoic acid]
The IC50 of the first is 20-fold higher: 39 nM for the first, 2 nM for the second.

First: Cc1c(N2CCCCC2)nc2ccc(Br)cc2c1C(=O)NCC(CCC(=O)O)c1c(Cl)ccc(Cl)c1Cl (racemic) [Example 171, (+/−)-5-({[6-Bromo-3-methyl-2-(piperidin-1-yl)quinolin-4-yl]carbonyl}amino)-4-(2,3,6-trichlorophenyl)pentanoic acid]
Second: [2H]C1([2H])N(c2nc3ccc(Br)cc3c(C(=O)NCC(CCC(=O)O)c3ccccc3C(F)(F)F)c2C)C([2H])([2H])C([2H])([2H])C1([2H])[2H] (single isomer, unassigned; (-)) [Example 277, (−)-5-[({6-Bromo-3-methyl-2-[(^2H8)pyrrolidin-1-yl]quinolin-4-yl}carbonyl)amino]-4-[2-(trifluoromethyl)phenyl]pentanoic acid]
The IC50 of the first is 3.6-fold lower: 9.4 nM for the first, 34 nM for the second.

Compared with `Cc1c(N2CCCC2)nc2ccc(Br)cc2c1C(=O)NCC(CCC(=O)O)c1c(F)ccc(F)c1Cl` (single isomer, unassigned; (-)) [Example 216, (−)-5-({[6-Bromo-3-methyl-2-(pyrrolidin-1-yl)quinolin-4-yl]carbonyl}amino)-4-(2-chloro-3,6-difluorophenyl)pentanoic acid], `Cc1c(N2CC[C@@H](F)C2)nc2ccc(Br)cc2c1C(=O)NCC(CCC(=O)O)c1ccccc1Cl` (single isomer, unassigned; (+)) [Example 67] is 2.2-fold higher in IC50: 2.9 nM for the first, 6.5 nM for the second. The first is the more potent here.

Compared with `Cc1c(N2CCCC(F)(F)C2)nc2ccc(Br)cc2c1C(=O)NCC(CCC(=O)O)c1c(F)cccc1C(F)(F)F` (single isomer, unassigned; (-)) [Example 167, (−)-5-({[6-Bromo-2-(3,3-difluoropiperidin-1-yl)-3-methylquinolin-4-yl]carbonyl}amino)-4-[2-fluoro-6-(trifluoromethyl)phenyl]pentanoic acid], `Cc1c(N2CCC(C)(F)C2)nc2ccc(Br)cc2c1C(=O)NCC(CCC(=O)O)c1ccccc1Cl` (centres unmarked) [Example 71, 5-[({6-Bromo-2-[3-fluoro-3-methylpyrrolidin-1-yl]-3-methylquinolin-4-yl}carbonyl)amino]-4-(2-chlorophenyl)pentanoic acid] is 30-fold higher in IC50: 3.7 nM for the first, 110 nM for the second.

Going from “(−)-5-[({6-Bromo-3-methyl-2-[(^2H10)piperidin-1-yl]quinolin-4-yl}carbonyl)amino]-4-[2-(trifluoromethoxy)phenyl]pentanoic acid [Example 272]” to `Cc1c(N2CCCC2)nc2ccc(Br)cc2c1C(=O)NCC(CCC(=O)O)c1c(F)cccc1F` (single isomer, unassigned) [Example 248, 5-({[6-Bromo-3-methyl-2-(pyrrolidin-1-yl)quinolin-4-yl]carbonyl}amino)-4-(2,6-difluorophenyl)pentanoic acid], the IC50 rises from 0.85 nM to 120 nM (140-fold).

Compared with `Cc1c(N2C[C@@H](C)O[C@@H](C)C2)nc2ccc(Br)cc2c1C(=O)NCC(CCC(=O)O)c1cc(F)ccc1Cl` (mixture of isomers) [Example 12, (+/−)-5-[({6-Bromo-2-[cis-2,6-dimethylmorpholin-4-yl]-3-methylquinolin-4-yl}carbonyl)amino]-4-(2-chloro-5-fluorophenyl)pentanoic acid], `Cc1c(N2CC=CCO2)nc2ccc(Br)cc2c1C(=O)NCC(CCC(=O)O)c1ccccc1Cl` (racemic) [Example 77, (+/−)-5-({[6-Bromo-2-(3,6-dihydro-2H-1,2-oxazin-2-yl)-3-methylquinolin-4-yl]carbonyl}amino)-4-(2-chlorophenyl)pentanoic acid] is 3.3-fold lower in IC50: 220 nM for the first, 66 nM for the second.

Going from `Cc1c(N2CCCC(CO)C2)nc2ccc(Br)cc2c1C(=O)NCC(CCC(=O)O)c1cc(F)ccc1Cl` (centres unmarked) [Example 21, 5-[({6-Bromo-2-[3-(hydroxymethyl)piperidin-1-yl]-3-methylquinolin-4-yl}carbonyl)amino]-4-(2-chloro-5-fluorophenyl)pentanoic acid] to `Cc1c(N2CCCC(F)C2)nc2ccc(Br)cc2c1C(=O)NCC(CCC(=O)O)c1c(Cl)ccc(Cl)c1Cl` (single isomer, unassigned) [Example 223, 5-[({6-Bromo-2-[3-fluoropiperidin-1-yl]-3-methylquinolin-4-yl}carbonyl)amino]-4-(2,3,6-trichlorophenyl)pentanoic acid], the IC50 falls from 230 nM to 140 nM (1.6-fold).

The compounds below were run on C57Bl6J mice with DQ12 silica-induced pulmonary fibrosis (assay: Silica-induced pulmonary fibrosis in mice, therapeutic chronic 30-day study). Conditions: 10 and 30 mg/kg po bid, versus silica-treated control.
Type: in vivo, mouse
Experimental: B-23. Silica-Induced Pulmonary Fibrosis in Mice: Therapeutic Chronic 30-Day Study with FP Antagonists
Adult female C57Bl6J mice (Charles River Laboratories, Sulzfeld, Germany) having a weight of 18-20 g were anaesthetized in a chamber with isoflurane (3% v/v) and treated intratracheally with 2.5 mg of crystalline DQ12 silica dissolved in 70 μL of sterile phosphate-buffered saline. Untreated control mice received the same volume of phosphate-buffered saline. […] 30 days after the installation of silica, the animals were anaesthetized with an intraperitoneal injection of ketamine/medetomidine (50 mg/kg and 0.33 mg/kg) combined with a subcutaneous injection of Temgesic (0.06 mg/kg) and sacrifice by exsanguination. Thereafter, the trachea was cannulated, and the animals' lungs were lavaged three times with 0.5 ml of ice-cold phosphate-buffered saline. Thereafter, the lungs were removed, weighed and shock-frozen in dry ice. […] The data are mean values±SEM of 8-12 animals per group. The statistical analysis was conducted with the unpaired Student's t test. P values<0.05 were considered to be significant.

In the case of `Cc1c(N2CCCC2)nc2ccc(Br)cc2c1C(=O)NCC(CCC(=O)O)c1ccccc1Cl` (single isomer, unassigned; (+)) [Example 35, (+)-5-({[6-bromo-3-methyl-2-(pyrrolidin-1-yl)quinolin-4-yl]carbonyl}amino)-4-(2-chlorophenyl)pentanoic acid], the “Hydroxyproline formation and fibrosis (result in words)” value is reported as “significant reduction in the hydroxyproline formation and fibrosis”.
